Results: USRE30241E, “Esters of 3-(hydroxy or hydroxymethyl)-4-hydroxyphenyl aminomethyl ketones” (Sterling Drug Inc., priority 1970, dated 1980)
Read-outs that look alike come from different tables or passages of the source.

Experiments:
[1] = test system: carbachol- or histamine-induced bronchoconstriction; assay: Bronchodilator Test Method I, anesthetized dog, intraduodenal activity; assay type: in vivo; conditions: Canis lupus familiaris, read-out: Bronchodilation; for inhibition in vivo at 0.032 mg/kg: 32 mcg/kg (salt) intraduodenal; for inhibition in vivo at 0.128 mg/kg: 128 mcg/kg (salt) intraduodenal; for inhibition in vivo at 0.03 mg/kg: 30 mcg/kg (salt) intraduodenal; for inhibition in vivo at 0.12 mg/kg: 120 mcg/kg (salt) intraduodenal
Outline: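 Pentobarbital-anesthetized (30 mg/kg i.v.) open-chest dogs of 9-18 kg, artificially ventilated; airway pressure recorded via tracheal cannula transducer. Test solution injected intraduodenally; from 5 min, i.v. carbachol (4-6 μg/kg) or histamine diphosphate (35-45 μg/kg) challenges every 30-60 min gauged degree and duration of bronchodilation.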

[2] = test system: guinea pig bronchioles constricted by carbachol; assay: Bronchodilator Test Method II, in vitro perfused guinea pig lung
Procedure: In this method bronchodilator activity in vitro was determined by testing the effect of graded doses of the test compounds on guinea pig bronchioles constricted by carbachol, using the technique reported by Sollman and von Oettingen, Proc. Soc, Exp. Biol. Med., 25,692 (1928) as modified by Tainter, Pedden, and James, J. Pharm. Exp. Ther., 51, 371 (1934) and by Luduena, von Euler, Tullar, and Lands, Arch. intern. Pharmacol., III, 392 (1957).

diastolic blood pressure = assay: Effect on diastolic blood pressure in the anesthetized dog; assay type: in vivo
Procedure: The effect of a rapid intravenous injection on the heart rate the heart rate was conducted in anesthetized dogs under normal respiration. A few open-chest dogs were also tested. Increase in heart rate was measured by using an electrocardiograph attached to the dog. Readings were taken every 0.5-1 minute for the first 10 minutes and every 2-5 minutes thereafter until recovery. In some cases, several doses and more than one compound were tested alternately in the same dog. The blood pressure effect was simultaneously recorded.

[3] = test system: carbachol- or histamine-induced bronchoconstriction; assay: Bronchodilator Test Method I, anesthetized dog, intravenous activity; assay type: in vivo; conditions: Canis lupus familiaris; for inhibition in vivo at 0.032 mg/kg: 32 mcg/kg i.v.; for inhibition in vivo at 0.128 mg/kg: 128 mcg/kg i.v.; for inhibition in vivo at 0.002 mg/kg: 2 mcg/kg i.v.
Outline: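 Pentobarbital-anesthetized (30 mg/kg i.v.), open-chest, artificially ventilated dogs were given i.v. carbachol (4-6 µg/kg) or histamine diphosphate (35-45 µg/kg). Test compound was given i.v. mixed with, after, or 1-10 min before the constrictor.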

heart rate = assay: Cardiovascular studies: effect on the heart rate in the anesthetized dog; assay type: in vivo
Outline: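 Anesthetized dogs, mostly spontaneously breathing, some open-chest, given rapid intravenous injections. Heart rate by electrocardiograph with blood pressure recorded simultaneously, every 0.5-1 minute for 10 minutes then every 2-5 minutes until recovery; several doses or compounds sometimes tested alternately in one dog.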

[4] = Stability of test solutions; conditions: ethylenediaminetetraacetic acid added; distilled water or saline solutions
[5] = 5 min, 8 mcg/kg i.v., 5 min, read-out: Bronchodilatation
[6] = 5 min, 5 min, read-out: Bronchodilatation
[7] = 0.5 h, 8 mcg/kg i.v., 30 min, read-out: Bronchodilatation
[8] = 0.5 h, 30 min, read-out: Bronchodilatation
[9] = 1 h, 8 mcg/kg i.v., 60 min, read-out: Bronchodilatation
[10] = 1 h, 60 min, read-out: Bronchodilatation
[11] = 2 h, 120 min, read-out: Bronchodilatation
[12] = 3 h, 180 min, read-out: Bronchodilatation
[13] = 4 h, 240 min, read-out: Bronchodilatation

Compound COc1ccc(C(=O)Oc2ccc(C(O)CNC(C)(C)C)cc2COC(C)=O)cc1 (stereo not drawn) [Example 151, 3-(acetoxymethyl)-4-(p-anisoyloxy)-alpha-(tert-butylaminomethyl)benzyl alcohol] has an inhibition in vivo at 0.032 mg/kg ([1]; 5 min, 5 min) of 24%, an inhibition in vivo at 0.128 mg/kg ([1]; 5 min, 5 min) of 54% and an inhibition in vivo at 0.032 mg/kg ([1]; 0.5 h, 30 min) of 40%. The inhibition in vivo at 0.128 mg/kg ([1]; 0.5 h, 30 min) was 63%, the inhibition in vivo at 0.032 mg/kg ([1]; 1 h, 60 min) was 36% and the inhibition in vivo at 0.128 mg/kg ([1]; 1 h, 60 min) was 66%. The inhibition in vivo at 0.032 mg/kg ([1]; 2 h, 120 min) was 36%, the inhibition in vivo at 0.128 mg/kg ([1]; 2 h, 120 min) was 66% and the inhibition in vivo at 0.032 mg/kg ([1]; 3 h, 180 min) was 28%. For the same compound, the inhibition in vivo at 0.128 mg/kg ([1]; 3 h, 180 min) was 66%, the inhibition in vivo at 0.032 mg/kg ([1]; 5 h, 300 min) was 20% and the inhibition in vivo at 0.128 mg/kg ([1]; 5 h, 300 min) was 43%. The ED50 ([2]; carbachol (Doryl) 1:5 million) was 5.1 µg (base), the “Duration, Mean” value ([2]; dose 10 mcg (base)) was 67.3 ± 33.7 min and the “Mean Decrease in Diastolic Blood Pressure” value (“Mean Decrease” for short) (diastolic blood pressure; 32 meg/kg (salt) i.v.) was 10%. The “Mean Decrease” value (diastolic blood pressure; 128 meg/kg (salt) i.v.) was 10%, the inhibition in vivo at 0.008 mg/kg [3, 5] was 43% and the inhibition in vivo at 0.032 mg/kg [3, 6] was 54%. It also gave an inhibition in vivo at 0.128 mg/kg [3, 6] of 85%, an inhibition in vivo at 0.008 mg/kg [3, 7] of 33% and an inhibition in vivo at 0.032 mg/kg [3, 8] of 46%. It also gave an inhibition in vivo at 0.128 mg/kg [3, 8] of 81%, an inhibition in vivo at 0.008 mg/kg [3, 9] of 50% and an inhibition in vivo at 0.032 mg/kg [3, 10] of 41%. It also gave an inhibition in vivo at 0.128 mg/kg [3, 10] of 81%, an inhibition in vivo at 0.008 mg/kg ([3]; 2 h, 8 mcg/kg i.v., 120 min, read-out: Bronchodilatation) of 43% and an inhibition in vivo at 0.032 mg/kg [3, 11] of 54%. It also gave an inhibition in vivo at 0.128 mg/kg [3, 11] of 73%, an inhibition in vivo at 0.008 mg/kg ([3]; 3 h, 8 mcg/kg i.v., 180 min, read-out: Bronchodilatation) of 30% and an inhibition in vivo at 0.032 mg/kg [3, 12] of 21%. The inhibition in vivo at 0.128 mg/kg [3, 12] was 69%, the inhibition in vivo at 0.032 mg/kg [3, 13] was 18% and the inhibition in vivo at 0.128 mg/kg [3, 13] was 64%. The inhibition in vivo at 0.008 mg/kg ([3]; 4.5 h, 8 mcg/kg i.v., 270 min, read-out: Bronchodilatation) was 20%, the inhibition in vivo at 0.128 mg/kg ([3]; 4.5 h, 270 min, read-out: Bronchodilatation) was 52% and the “Mean Maximal Increase in the Heart Rate” value (heart rate; 32 mcg/kg (salt) i.v.) was 18 Beats/Minute. For the same compound, the “Mean Maximal Increase in the Heart Rate” value (heart rate; 128 mcg/kg (salt) i.v.) was 24 Beats/Minute.
For CCC(NC(C)C)C(O)c1ccc(O)c(O)c1 (stereo not drawn) [IV, 3,4-Dihydroxy-alpha-[1-(isopropylamino)-propyl]benzyl alcohol, reference compound], the inhibition in vivo at 0.002 mg/kg [3, 6] was 32%, the inhibition in vivo at 0.004 mg/kg ([3]; 5 min, 4 mcg/kg i.v., 5 min, read-out: Bronchodilatation) was 72% and the inhibition in vivo at 0.008 mg/kg [3, 5] was 74%. The inhibition in vivo at 0.002 mg/kg [3, 8] was 0%, the inhibition in vivo at 0.004 mg/kg ([3]; 0.5 h, 4 mcg/kg i.v., 30 min, read-out: Bronchodilatation) was 31% and the inhibition in vivo at 0.008 mg/kg [3, 7] was 13%. For the same compound, the inhibition in vivo at 0.004 mg/kg ([3]; 1 h, 4 mcg/kg i.v., 60 min, read-out: Bronchodilatation) was 19%, the inhibition in vivo at 0.008 mg/kg [3, 9] was 13% and the “need for stabilizing agent in solution” value [4] was “required to stabilize them”.
CC(C)NCC(O)c1ccc(O)c(O)c1 (stereo not drawn) [Ref. Cpd. II, 3,4-Dihydroxy-alpha-(isopropylaminomethyl)benzyl alcohol, reference compound] gave an inhibition in vivo at 0.03 mg/kg ([1]; 10 min, 10 min) of 9%, an inhibition in vivo at 0.12 mg/kg ([1]; 10 min, 10 min) of 28% and an inhibition in vivo at 0.03 mg/kg ([1]; 0.5 h, 30 min) of 5%. It also gave an inhibition in vivo at 0.12 mg/kg ([1]; 0.5 h, 30 min) of 5%, an inhibition in vivo at 0.03 mg/kg ([1]; 1 h, 60 min) of 0% and an inhibition in vivo at 0.12 mg/kg ([1]; 1 h, 60 min) of 19%. For the same compound, the “Duration, Mean” value ([2]; dose 0.75 mcg (base)) was 5 min, the “Mean Decrease” value (diastolic blood pressure; 0.15 meg/kg (salt) i.v.) was 12% and the “Mean Decrease” value (diastolic blood pressure; 0.3 meg/kg (salt) i.v.) was 32%. The “Mean Decrease” value (diastolic blood pressure; 0.6 meg/kg (salt) i.v.) was 40%, the inhibition in vivo at 0.0003 mg/kg ([3]; 1 min, 0.3 mcg/kg i.v., 1-2 min, read-out: Bronchodilatation) was 23% and the inhibition in vivo at 0.0006 mg/kg ([3]; 1 min, 0.6 mcg/kg i.v., 1-2 min, read-out: Bronchodilatation) was 35%. The inhibition in vivo at 0.0012 mg/kg ([3]; 1 min, 1.2 mcg/kg i.v., 1-2 min, read-out: Bronchodilatation) was 55%, the “Mean Maximal Increase in the Heart Rate” value (heart rate; 0.15 mcg/kg (salt) i.v.) was 26% and the “Mean Maximal Increase in the Heart Rate” value (heart rate; 0.3 mcg/kg (salt) i.v.) was 35%. For the same compound, the “Mean Maximal Increase in the Heart Rate” value (heart rate; 0.6 mcg/kg (salt) i.v.) was 50%.
CNCC(O)c1ccc(O)c(O)c1 (stereo not drawn) [V, 3,4-Dihydroxy-alpha-(methylaminomethyl)benzyl alcohol, reference compound] gave an inhibition in vivo at 0.004 mg/kg ([3]; 1 min, read-out: Bronchodilatation, 4 mcg/kg i.v., 1-2 min) of 0%, an inhibition in vivo at 0.064 mg/kg ([3]; 1 min, read-out: Bronchodilatation, 64 mcg/kg i.v., 1-2 min) of 29% and an inhibition in vivo at 0.004 mg/kg ([3]; 10 min, read-out: Bronchodilatation, 4 mcg/kg i.v., 10 min) of 0%. For the same compound, the inhibition in vivo at 0.008 mg/kg ([3]; 10 min, read-out: Bronchodilatation, 8 mcg/kg i.v., 10 min) was 0%, the inhibition in vivo at 0.008 mg/kg ([3]; 0.5 h, read-out: Bronchodilatation, 8 mcg/kg i.v., 30 min) was 0% and the inhibition in vivo at 0.016 mg/kg ([3]; 0.5 h, read-out: Bronchodilatation, 16 mcg/kg i.v., 30 min) was 5%. For the same compound, the inhibition in vivo at 0.064 mg/kg ([3]; 0.5 h, read-out: Bronchodilatation, 64 mcg/kg i.v., 30 min) was 0% and the “need for stabilizing agent in solution” value [4] was “required to stabilize them”.
